According to patent US12351597B2, “Substituted biphenyl or phenylheteroaryl-mannosides as antagonists of FimH” (GLAXOSMITHKLINE INTELLECTUAL PROPERTY DEVELOPMENT LIMITED, priority 2019, dated 2025):

Target: T1, FimH (Escherichia coli, UniProt Q1R2J4)
T1 construct: endogenous in cells; host or cells: E. coli UTI89 whole bacteria (piliated), with guinea pig red blood cells
Assay: Hemagglutination inhibition assay (HAI)
Format: cell-based
Conditions: HAI titer / EC>90: concentration reducing bacterial agglutination of guinea pig red blood cells by >90%; UTI89 bacteria
Text: “HAI titer or EC>90” is that concentration of the FimH inhibitor/antagonist which reduces the bacterial agglutination of guinea pig red blood cells by greater than 90%.
The activities of the Examples 1-40 compounds above as FimH antagonists/inhibitors were obtained by the following assay(s), and values are provided in Table 1. The values not provided mean that the activities have not yet been tested.
Hemagglutination Inhibition Assay (HAI)
The hemagglutination inhibition (HAI) assay was performed with UTI89 bacteria and guinea pig red blood cells, as previously described (S. J. Hultgren, W. R. Schwan, A. J. Schaeffer, J. L. Duncan Infect. Immun. 1986, 54, 613-620 and Jarvis, C.; Han, Z.; Kalas, V.; Klein, R.; Pinkner, J. S.; Ford, B.; Binkley, J.; Cusumano, C. K.; Cusumano, Z.; Mydock-McGrane, L.; Hultgren, S. J.; Janetka, J. W., ChemMedChem 2016, 11, 367-373). Values not listed were not tested.

| Compound | HAI nM |
| --- | --- |
| Cc1cc(-c2cnc(C3CC3)cn2)ccc1O[C@H]1O[C@H](CO)[C@@H](O)[C@H](O)[C@@H]1O [Example 12] | “++++” (<50) |
| Cc1cc(-c2ccnc(C(F)(F)F)n2)ccc1O[C@H]1O[C@H](CO)[C@@H](O)[C@H](O)[C@@H]1O [Example 14] | “+++” (50-200) |
| Cc1cc(-c2cnc(C(F)(F)F)nc2)ccc1O[C@H]1O[C@H](CO)[C@@H](O)[C@H](O)[C@@H]1O [Example 16] | “++++” (<50) |
| OC[C@H]1O[C@H](Oc2c(F)cc(-c3ccc(C(F)(F)F)cn3)cc2C(F)(F)F)[C@@H](O)[C@@H](O)[C@@H]1O [Example 28] | “++++” (<50) |
| Cc1cc(-c2cncc(C#N)c2)ccc1O[C@H]1O[C@H](CO)[C@@H](O)[C@H](O)[C@@H]1O [Example 37] | “++++” (<50) |
| N#Cc1cncc(-c2cc(F)c(O[C@H]3O[C@H](CO)[C@@H](O)[C@H](O)[C@@H]3O)c(C(F)(F)F)c2)c1 [Example 38] | “++++” (<50) |

Tested on: not listed separately
Assay: Rat pharmacokinetics (IV infusion 1 mg/kg, then PO 5 mg/kg; blood and urine)
Format: in vivo, Male Wistar Han rats
Conditions: PO 5 mg/kg, blood, AUC divided by dose in mg/kg
Text: General Assays for Obtaining AUC Oral h*μm, % F, and Ue % PO Values
Male Wistar Han rats were purchased from Vital River Laboratory Animal Technology Co. Ltd (Beijing, China). The animals were approx. 6-8 weeks old with body weights of 200-300 g on the dosing date. The animals were housed in a 12-hour light/12-hour dark cycle environment and had free access to food and water. All animals were fed prior to dosing. Studies were approved by the Pharmaron Institutional Animal Care and Use Committee (IACUC).
Test article was administered as an intravenous infusion for 1 hour (1 mg/kg) at 5 mL/kg/h. After 48 h, animals received a single oral dose (5 mg/kg, free form) at a dose volume of 10 mL/kg, respectively. Blood samples were collected at various time points after IV infusion and PO administrations. Urine samples were collected at various time points after IV infusion and PO administrations (for some compounds).
Test article was dissolved in DMSO with vortexing and sonification to obtain a stock solution. An aliquot of the stock solution was mixed with 10% HP-β-CD in saline with vortexing to obtain a solution with concentration at 0.2 mg/mL of test article.
Test article was added into 1% Methyl Cellulose with vortexing and sonication to obtain a homogeneous suspension with concentration at 0.5 mg/mL of test article.
For IV infusion (1 mg/kg) administration, blood samples were collected from each animal at 0, 0.25, 0.5, 0.75, 1, 1.08, 1.25, 1.5, 1.75, 2, 3, 5, 8, 12, 24 hour post-dose.
For PO (5 mg/kg) administration, blood samples were collected from each animal at 0, 0.25, 0.5, 1, 1.5, 2, 3, 4, 6, 8, 12, 24 hour post-dose.
Blood samples (50 μL) were collected from each animal via jugular vein. These blood samples were placed into tubes containing K2EDTA. Whole blood was mixed with same volume of water and inverted several times. The blood samples were stored at −75±15° C. until analysis.
For IV infusion (1 mg/kg) administration, urine samples were collected from each animal at 0-4, 4-8, 8-12, 12-24 hour post-dose.
For PO (5 mg/kg) administration, urine samples were collected (for some compounds) from each animal at 0-4, 4-8, 8-12, 12-24 hour post-dose.
55 μL of standards, 55 μL of QC samples or 55 μL of unknown samples (50 μL of blood or urine with 5 μL 50% acetonitrile) were mixed to 200 μL of acetonitrile containing IS (dexamethasone) to precipitate proteins. Then the samples were vortexed for 30 sec. After centrifugation at 4° C., 4700 rpm for 30 min, and 5 μL of the supernatant was injected into the LC-MS/MS system for quantitative analysis.
Test article blood and urine concentrations for each animal following IV infusion at 1 mg/kg and PO at 5 mg/kg were used to calculate pharmacokinetic parameters by employing a non-compartmental analysis (Phoenix™ WinNonlin® 7.0). The linear trapezoidal algorithm was used for AUC calculation. • AUC oral h*uM: Area under the curve (AUC) of drug concentration in blood vs. time (units: h*μM) following oral administration • DNAUC Dose normalized area under the curve is calculate by divided the area under the curve divided by the dose in the mg/kg • % F: Oral bioavailability (%) derived from the ratio of dose-normalized AUC following PO and IV administration • Ue % PO: Percentage of oral dose eliminated unchanged in urine or an estimate of that parameter generated from using the percentage of the iv dose eliminated in the urine times the oral bioavailability Production Methods: […]

| Compound | PK DNAUC h * uM (DNAUC oral, dose normalized) |
| --- | --- |
| Cc1cc(-c2cnc(C3CC3)cn2)ccc1O[C@H]1O[C@H](CO)[C@@H](O)[C@H](O)[C@@H]1O [Example 12] | “++” (0.1 ≤ × ≤ 0.2h · μM) |
| Cc1cc(-c2ccnc(C(F)(F)F)n2)ccc1O[C@H]1O[C@H](CO)[C@@H](O)[C@H](O)[C@@H]1O [Example 14] | “+” (<01 h · μM) |
| Cc1cc(-c2cnc(C(F)(F)F)nc2)ccc1O[C@H]1O[C@H](CO)[C@@H](O)[C@H](O)[C@@H]1O [Example 16] | “++” (0.1 ≤ × ≤ 0.2h · μM) |
| OC[C@H]1O[C@H](Oc2c(F)cc(-c3ccc(C(F)(F)F)cn3)cc2C(F)(F)F)[C@@H](O)[C@@H](O)[C@@H]1O [Example 28] | “+++” (>0.2 h · μM) |
| Cc1cc(-c2cncc(C#N)c2)ccc1O[C@H]1O[C@H](CO)[C@@H](O)[C@H](O)[C@@H]1O [Example 37] | “+” (<01 h · μM) |
| N#Cc1cncc(-c2cc(F)c(O[C@H]3O[C@H](CO)[C@@H](O)[C@H](O)[C@@H]3O)c(C(F)(F)F)c2)c1 [Example 38] | “+” (<01 h · μM) |

Same assay, conditions: male, Wistar Han, whole blood, oral bioavailability from dose-normalized AUC, PO 5 mg/kg vs IV infusion 1 mg/kg

| Compound | bioavailability [%] |
| --- | --- |
| Cc1cc(-c2cnc(C3CC3)cn2)ccc1O[C@H]1O[C@H](CO)[C@@H](O)[C@H](O)[C@@H]1O [Example 12] | > 30 |
| OC[C@H]1O[C@H](Oc2c(F)cc(-c3ccc(C(F)(F)F)cn3)cc2C(F)(F)F)[C@@H](O)[C@@H](O)[C@@H]1O [Example 28] | 10 to 30 |

Same assay, conditions: percentage of oral dose eliminated unchanged in urine, or estimate from IV urinary % times oral bioavailability

| Compound | Ue % (Ue % po) |
| --- | --- |
| Cc1cc(-c2cnc(C3CC3)cn2)ccc1O[C@H]1O[C@H](CO)[C@@H](O)[C@H](O)[C@@H]1O [Example 12] | “++” (0.5 ≤ × ≤ 5%) |
